According to PubChem BioAssay (NCI):
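Values below derive from 48-hour exposures of cells grown in 96-well plates, with endpoints linearly interpolated between the two concentrations bracketing the appropriate inhibition level. GI50 is the concentration that inhibits growth by half. TGI: total growth inhibition.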

Legend:
Experiment in all cases: inhibition of tumour cell growth, NCI panel, 48 h
[1] = system: 786-0 renal
[2] = system: A498 renal
[3] = system: A549 NSCLC
[4] = system: ACHN renal
[5] = system: BT-549 breast
[6] = system: CAKI-1 renal
[7] = system: COLO 205 colon
[8] = system: DU-145 prostate
[9] = system: EKVX NSCLC
[10] = system: HCC-2998 colon
[11] = system: HCT-116 colon
[12] = system: HCT-15 colon
[13] = system: HL-60(TB) leukemia
[14] = system: HOP-62 NSCLC
[15] = system: HOP-92 NSCLC
[16] = system: HS 578T breast
[17] = system: HT29 colon
[18] = system: IGROV1 ovarian
[19] = system: K-562 leukemia
[20] = system: KM12 colon
[21] = system: LOX IMVI melanoma
[22] = system: M14 melanoma
[23] = system: MALME-3M melanoma
[24] = system: MDA-MB-231 breast
[25] = system: MDA-MB-435
[26] = system: MOLT-4 leukemia
[27] = system: NCI-H226 lung
[28] = system: NCI-H23 lung
[29] = system: NCI-H460 lung
[30] = system: NCI-H522 lung
[31] = system: NCI/ADR-RES ovarian
[32] = system: OVCAR-4 ovarian
[33] = system: OVCAR-5 ovarian
[34] = system: OVCAR-8 ovarian
[35] = system: PC-3 prostate
[36] = system: RPMI-8226 leukemia
[37] = system: RXF 393 renal
[38] = system: SF-268 CNS
[39] = system: SF-295 CNS
[40] = system: SF-539 CNS
[41] = system: SK-MEL-2 melanoma
[42] = system: SK-MEL-28 melanoma
[43] = system: SK-MEL-5 melanoma
[44] = system: SK-OV-3 ovarian
[45] = system: SN12C renal
[46] = system: SNB-19 CNS
[47] = system: SNB-75 CNS
[48] = system: SR leukemia
[49] = system: SW-620 colon
[50] = system: TK-10 renal
[51] = system: U251 CNS
[52] = system: UACC-257 melanoma
[53] = system: UACC-62 melanoma
[54] = system: UO-31 renal

Compound `CCc1ccc(SC2c3ccc(N(CC)CC)cc3Oc3nc(N)c(C#N)c(N)c32)cc1` (stereo not drawn) has a GI50 [1] of 1740 nM, a TGI [1] of 3170 nM and a GI50 [2] of 1630 nM. The TGI [2] was 3010 nM, the GI50 [3] was 1810 nM and the TGI [3] was 3320 nM. The GI50 [4] was 1670 nM, the TGI [4] was 3040 nM and the GI50 [5] was 1300 nM. It also gave a TGI [5] of 2590 nM, a GI50 [6] of 1630 nM and a TGI [6] of 3000 nM. It also gave a GI50 [7] of 1920 nM, a TGI [7] of 3510 nM and a GI50 [8] of 1860 nM. It also gave a TGI [8] of 3260 nM, a GI50 [9] of 710 nM and a TGI [9] of 2070 nM. The GI50 [10] was 1860 nM, the TGI [10] was 3390 nM and the GI50 [11] was 1130 nM. It also gave a TGI [11] of 2490 nM, a GI50 [12] of 1620 nM and a TGI [12] of 3340 nM. For the same compound, the GI50 [13] was 2590 nM, the TGI [13] was 8340 nM and the GI50 [14] was 1830 nM. For the same compound, the TGI [14] was 3330 nM, the GI50 [15] was 1480 nM and the TGI [15] was 2840 nM. The GI50 [16] was 1760 nM, the TGI [16] was 4850 nM and the GI50 [17] was 2030 nM. The TGI [17] was 3760 nM, the GI50 [18] was 1440 nM and the TGI [18] was 2890 nM. For the same compound, the GI50 [19] was 3120 nM, the TGI [19] was greater than 100000 nM and the GI50 [20] was 1580 nM. The TGI [20] was 3030 nM, the GI50 [21] was 671 nM and the TGI [21] was 1970 nM. The GI50 [22] was 1450 nM, the TGI [22] was 2830 nM and the GI50 [23] was 1750 nM. It also gave a TGI [23] of 3160 nM, a GI50 [24] of 1630 nM and a TGI [24] of 3040 nM. For the same compound, the GI50 [25] was 1680 nM, the TGI [25] was 3100 nM and the GI50 [26] was 2190 nM. The TGI [26] was greater than 100000 nM, the GI50 [27] was 2010 nM and the TGI [27] was 4520 nM. It also gave a GI50 [28] of 1530 nM, a TGI [28] of 3030 nM and a GI50 [29] of 1840 nM. For the same compound, the TGI [29] was 3550 nM, the GI50 [30] was 1780 nM and the TGI [30] was 3280 nM. For the same compound, the GI50 [31] was 2090 nM, the TGI [31] was 4960 nM and the GI50 [32] was 1700 nM. The TGI [32] was 3090 nM, the GI50 [33] was 1800 nM and the TGI [33] was 3240 nM. It also gave a GI50 [34] of 1710 nM, a TGI [34] of 3130 nM and a GI50 [35] of 1410 nM. For the same compound, the TGI [35] was 2900 nM, the GI50 [36] was 2180 nM and the TGI [36] was 6080 nM. For the same compound, the GI50 [37] was 1580 nM, the TGI [37] was 2960 nM and the GI50 [38] was 1760 nM. It also gave a TGI [38] of 3270 nM, a GI50 [39] of 1760 nM and a TGI [39] of 3200 nM. The GI50 [40] was 1660 nM, the TGI [40] was 3050 nM and the GI50 [41] was 1740 nM. For the same compound, the TGI [41] was 3170 nM, the GI50 [42] was 1890 nM and the TGI [42] was 3310 nM. For the same compound, the GI50 [43] was 1770 nM, the TGI [43] was 3170 nM and the GI50 [44] was 1890 nM. It also gave a TGI [44] of 3340 nM, a GI50 [45] of 1680 nM and a TGI [45] of 3130 nM. It also gave a GI50 [46] of 1690 nM, a TGI [46] of 3080 nM and a GI50 [47] of 1500 nM. For the same compound, the TGI [47] was 2830 nM, the GI50 [48] was 482 nM and the TGI [48] was greater than 100000 nM. The GI50 [49] was 1880 nM, the TGI [49] was 3510 nM and the GI50 [50] was 2750 nM. The TGI [50] was 4260 nM, the GI50 [51] was 1440 nM and the TGI [51] was 2820 nM. The GI50 [52] was 1840 nM, the TGI [52] was 3280 nM and the GI50 [53] was 1700 nM. The TGI [53] was 3130 nM, the GI50 [54] was 1450 nM and the TGI [54] was 2760 nM.
